Measurements reported in patent US20120220577A1, “GLYCINE B ANTAGONISTS” (Merz Pharma GmbH & Co KgaA, priority 2009, published 2012).

Columns and labels:
[1] = biological target: T1, glycine binding pocket of the NMDA receptor (Rattus norvegicus, UniProt P35439); assay: [3H]MDL-105,519 displacement studies (rat cortical membranes); conditions: displacement of 2 nM [3H]-MDL-105,519, rat cortical membranes; read-out: NMDA-MDL 105519-r-CTX - IC50
T1 construct: For isolation of the cell membranes, the cortices are homogenized; from tissue; host or cells: rat cerebral cortex membranes (male Sprague-Dawley)
Method: Anaesthetised male Sprague-Dawley rats (200-250 g, Janvier, Le Genest-Isle, France) are decapitated and their brains removed rapidly. […] For isolation of the cell membranes, the cortices are homogenized in 20 volumes of ice-cold 0.32 M sucrose (Sigma-Aldrich, Taufkirchen, Germany) using a glass-Teflon homogenizer. The homogenate is centrifuged at 1000×g for 10 minutes, the pellet is discarded and the supernatant centrifuged at 20,000×g for 20 minutes. The resulting pellet is re-suspended in 20 volumes of distilled water and centrifuged for 20 minutes at 8000×g. The supernatant and the buffy coat are then centrifuged three times (48,000×g for 20 minutes) in the presence of 50 mM Tris-HCl, pH 8.0 (assay buffer). All centrifugation steps are carried out at 4° C. After resuspension in 5 volumes of 50 mM Tris-HCl, pH 7.5, the membrane suspension is frozen rapidly at −80° C. On the day of assay, the membranes are thawed and washed four times by resuspension in 50 mM Tris-HCl, pH 7.5, and centrifugation at 48,000×g for 20 minutes. The final pellet is suspended in assay buffer. […] The final protein concentration used for our studies is 400 μg/ml.
A robotic system designed for binding assays (Tecan Deutschland GmbH, Crailsheim, Germany) is loaded with the membrane solution, solutions for bound control (buffer/DMSO 20%), unlabeled glycine (1 mM) for evaluation of non-specific binding, all compounds to be tested (at 20-fold concentrations), radioligand and respective 96-well plates.
The protein/receptor concentration is held constant whereas the amount of specific bound radioligand is determined using increasing concentrations of ligand.
Firstly, the assay plates are loaded with membrane solution and are shaken at 4° C. The mother plates are then prepared by pipetting the compounds into assay buffer/20% DMSO to obtain the desired final concentrations (dose response curve with five different concentrations, e.g. 10, 3, 1, 0.3, and 0.1 μM). After transferring radioligand into the assay plates, the compounds are added (including the bound and the non-specific binding control). The final DMSO concentration is 1%. The assay plates are incubated and shaken at 4° C. for 1 h, before the mixture is exhausted as rapidly as possible via a vacuum manifold using the Multiscreen HTS glass fibre (type B) filter plates (Millipore, Schwalbach, Germany) under a constant vacuum of 450 mbar. The membranes are washed four times with cold assay buffer ([…]). 50 μL of Ultima Gold scintillation cocktail (PerkinElmer, Rodgau-Jügesheim, Germany) is added to the wet filter plates and incubated at room temperature overnight before counting the disintegration per minutes using a liquid scintillation counter (MicroBeta, PerkinElmer, Rodgau-Jügesheim, Germany).
The residual radioactivity after displacement of the test compound (n=5) is then corrected with respect to the set controls.

[2] = biological target: NMDA receptor glycine B site (Rattus norvegicus, UniProt P35439); assay: Calcium FLIPR studies, rat cortical neurons (NMDA/D-Serine induced intracellular calcium); format: cell-based; set-up: Primary neurons are prepared from cortices of embryonal rats at day 17 of pregnancy; endogenous in cells; host or cells: primary rat cortical neurons (E17, 11-13 DIV); conditions: rat cortical neurons; stimulation with 30 μM NMDA and 1 μM D-Serine; antagonist pre-incubated 10 min; read-out: NMDA-FLIPR-rCTX-NAM - IC50
Method: Antagonistic potencies of the test compounds are functionally evaluated using electrophysiological whole cell patch-clamp recordings and/or fluorometric intracellular Ca^2+-imaging (FLIPR) screens.
Sprague-Dawley rat embryos (E 17) are decapitated and neocortices are dissected, trypsinized and carefully triturated. The cell suspension is plated on poly-D-lysine pre-coated 96-well Plates (Greiner, Frickenhausen, Germany) at a cell density of 55.000 cells/well. The neurons are cultivated in Neurobasal media containing B27-Supplement and […] L-Glutamine (Biochrom) at 37° C. in a humidified atmosphere of 5% CO2/95% air. Medium is exchanged completely at day 4 and to 50% on day 7. At the time of experiments neurons are 11-13 days in vitro.
The increase of intracellular calcium after stimulation with 30 μM NMDA and 1 μM D-Serine is measured using the fluorometric imaging plate reader (FLIPR) and the Calcium-4-Kit (both Molecular Devices, Ismaning, Germany). Prior to addition of agonist or antagonist (5 different concentrations, n=5) the medium is aspirated and cells are washed once before loading with 150 μL of loading buffer (1 h at room temperature), consisting of Ca-4 sensitive dye reconstituted in extracellular bath solution, pH 7.3. Subsequently, plates are transferred to FLIPR to detect increases in intracellular calcium after the addition of agonist, measured as relative fluorescence units (RFU). Antagonists are pre-incubated with the cells for 10 min at room temperature before the addition of the agonist and co-agonist.
The fluorescence signal increase after addition of agonist reflects the increase of intracellular calcium. Inconsistencies in the amount of cells per well are normalised by using the spatial uniformity correction of the FLIPR software (Screenworks, Molecular Devices). The mean of replicated temporal data (n=5) is calculated and used for graphical representation. For the evaluation of the antagonistic potency, the calcium changes in response to different concentrations of antagonist are determined using an area under the curve (AUC) calculation. All responses (RFU-values) are determined as percentage of control (=maximum response at 30 μM NMDA and 1 μM D-Serine). IC50 values are calculated according the four parameter logistic equation using GraFit (Erithacus Software).

IC50 [1] [µM]	IC50 [2] [µM]	SMILES
0.089	1.65	NCc1ccc(OCC(=O)O)c(NC(=O)COc2cc(C(=O)O)cc3cc(Cl)cc(Cl)c23)c1 [Example 79, 4-[(5-Aminomethyl-2-carboxymethoxy-phenylcarbamoyl)-methoxy]-5,7-dichloro-naphthalene-2-carboxylic acid]
0.344	2.27	O=C(COc1cc(C(=O)O)cc2cc(Cl)cc(Cl)c12)Nc1cccc(-c2nnn[nH]2)c1 [Example 101, 5,7-Dichloro-4-{[3-(1H-tetrazol-5-yl)-phenylcarbamoyl]-methoxy}-naphthalene-2-carboxylic acid]
2.29	7.35	O=C(O)c1cc(OCC(=O)N2CCc3ccccc3C2)c2c(Cl)cc(Cl)cc2c1 [Example 52, 5,7-Dichloro-4-[2-(3,4-dihydro-1H-isoquinolin-2-yl)-2-oxo-ethoxy]-naphthalene-2-carboxylic acid]
1.27	10.8	CNC(=O)COc1ccccc1NC(=O)COc1cc(C(=O)O)cc2cc(Cl)cc(Cl)c12 [Example 91, 5,7-Dichloro-4-[(2-methylcarbamoylmethoxy-phenylcarbamoyl)-methoxy]-naphthalene-2-carboxylic acid]
1.51	6.49	O=C(O)c1cc(OC(C(=O)O)c2ccccc2)c2c(Cl)cc(Cl)cc2c1 (centres unmarked) [Example 32, 4-(Carboxyphenylmethoxy)-5,7-dichloronaphthalene-2-carboxylic acid]
0.139	1.44	O=C(COc1cc(C(=O)O)cc2cc(Cl)cc(Cl)c12)NCc1cccc(-c2nnn[nH]2)c1 [Example 107, 5,7-Dichloro-4-{[3-(1H-tetrazol-5-yl)-benzylcarbamoyl]-methoxy}-naphthalene-2-carboxylic acid]
1.52	5.47	Cc1ccc(S(=O)(=O)NC(=O)COc2cc(C(=O)O)cc3cc(Cl)cc(Cl)c23)cc1 [Example 36, 5,7-Dichloro-4-[2-oxo-2-(toluene-4-sulfonylamino)-ethoxy]-naphthalene-2-carboxylic acid]
1.27	4.96	COc1ccccc1N1CCC(Oc2cc(C(=O)O)cc3cc(Cl)cc(Cl)c23)C1=O (centres unmarked) [Example 75, 5,7-Dichloro-4-[1-(2-methoxy-phenyl)-2-oxo-pyrrolidin-3-yloxy]-naphthalene-2-carboxylic acid]
0.186	1.39	O=C(COc1cc(C(=O)O)cc2cc(Cl)cc(Cl)c12)NCc1cccnc1 [Example 104, 5,7-Dichloro-4-{[(pyridin-3-ylmethyl)-carbamoyl]-methoxy}-naphthalene-2-carboxylic acid]
0.559	4.1	O=C(COc1cc(C(=O)O)cc2cc(Cl)cc(Cl)c12)Nc1ccccc1Cc1nnn[nH]1 [Example 100, 5,7-Dichloro-4-{[2-(1H-tetrazol-5-ylmethyl)-phenylcarbamoyl]-methoxy}-naphthalene-2-carboxylic acid]
0.55	2.68	O=C(COc1cc(C(=O)O)cc2cc(Cl)cc(Cl)c12)Nc1cccc(Cc2nnn[nH]2)c1 [Example 90, 5,7-Dichloro-4-{[3-(1H-tetrazol-5-ylmethyl)-phenylcarbamoyl]-methoxy}naphthalene-2-carboxylic acid]
0.69	4.66	CC(Oc1cc(C(=O)O)cc2cc(Cl)cc(Cl)c12)C(=O)Nc1ccc(CO)cc1 (centres unmarked) [Example 16, 5,7-Dichloro-4-[1-(4-hydroxymethylphenylcarbamoyl)-ethoxy]-naphthalene-2-carboxylic acid]
0.641	7.17	NC(=O)COc1ccccc1NC(=O)COc1cc(C(=O)O)cc2cc(Cl)cc(Cl)c12 [Example 95, 4-[(2-Carbamoylmethoxy-phenylcarbamoyl)-methoxy]-5,7-dichloro-naphthalene-2-carboxylic acid]
0.656	3.84	O=C(COc1cc(C(=O)O)cc2cc(Cl)cc(Cl)c12)Nc1cccc(OCc2nnn[nH]2)c1 [Example 92, 5,7-Dichloro-4-{[3-(1H-tetrazol-5-ylmethoxy)-phenylcarbamoyl]-methoxy}-naphthalene-2-carboxylic acid]
1.23	9.41	O=C(O)Cc1ccc(NC(=O)COc2cc(C(=O)O)cc3cc(Cl)cc(Cl)c23)cn1 [Example 46, 4-[(6-Carboxymethyl-pyridin-3-ylcarbamoyl)-methoxy]-5,7-dichloro-naphthalene-2-carboxylic acid]
0.236	5.4	O=C(COc1cc(C(=O)O)cc2cc(Cl)cc(Cl)c12)NCc1cccc(CO)c1 [Example 22, 5,7-Dichloro-4-[(3-hydroxymethylbenzylcarbamoyl)-methoxy]-naphthalene-2-carboxylic acid]
1.54	3.8	O=C(COc1cc(C(=O)O)cc2cc(Cl)cc(Cl)c12)Nc1ccc(OCc2nnn[nH]2)cc1 [Example 88, 5,7-Dichloro-4-{[4-(1H-tetrazol-5-ylmethoxy)-phenylcarbamoyl]-methoxy}-naphthalene-2-carboxylic acid]
1.39	7.54	O=C(O)c1cc(OC2CCN(c3ccccc3)C2=O)c2c(Cl)cc(Cl)cc2c1 (centres unmarked) [Example 65, 5,7-Dichloro-4-(2-oxo-1-phenyl-pyrrolidin-3-yloxy)-naphthalene-2-carboxylic acid]
1.35	10.6	O=C(O)c1cc(OCC(=O)N2Cc3ccccc3CC2C(=O)O)c2c(Cl)cc(Cl)cc2c1 (centres unmarked) [Example 38, 2-[2-(3-Carboxy-6,8-dichloronaphthalen-1-yloxy)-acetyl]-1,2,3,4-tetrahydroisoquinoline-3-carboxylic acid]
0.909	5.95	O=C(O)c1cc(OCC(=O)N2c3ccccc3CC2c2nnn[nH]2)c2c(Cl)cc(Cl)cc2c1 (centres unmarked) [Example 99, 5,7-Dichloro-4-{2-oxo-2-[2-(1H-tetrazol-5-yl)-2,3-dihydro-indol-1-yl]-ethoxy}-naphthalene-2-carboxylic acid]
0.65		CN(C)CCNC(=O)COc1ccccc1NC(=O)COc1cc(C(=O)O)cc2cc(Cl)cc(Cl)c12 [Example 109, 5,7-Dichloro-4-({2-[(2-dimethylamino-ethylcarbamoyl)-methoxy]-phenylcarbamoyl}-methoxy)-naphthalene-2-carboxylic acid]
